Source: US11807650B2, “NMDA receptor modulators and uses thereof” (Novartis AG, priority 2016, dated 2023)

Target: T1, human GRIN1 (transcript variant NR1-3) and GRIN2D expressed in Xenopus oocytes (Homo sapiens, UniProt O15399)
T1 construct: GenScript (GRIN2D synthesis) SC115601; host or cells: Xenopus oocytes injected with cRNA (1 GluN1 : 2 GluN2)
Experiment: NR2D oocyte potentiation assay (two-electrode voltage clamp)
Assay type: cell-based
Conditions: 10 uM test compound; glutamate and glycine 10 μM each; holding potential −40 mV
Protocol: NR2D Oocyte Potentiation Assay. Xenopus oocytes (Xenopus 1, Dexter, Mich.) were initially separated from the lobes of an ovary using surgical forceps; they were then defolliculated by constant agitation at room temperature in OR-2 buffer (82.5 mM NaCl; 2.5 mM KCl; 1 mM MgCl2; 5 mM HEPES; pH 7.4) containing 2 mg/ml collagenase Type 1 (Fisher Scientific, USA) for 1.5-2 hours. The cells were then gently aspirated with a Pasteur pipette to remove the follicular tissue; this was followed by washing three times with OR-2 to remove all traces of collagenase. The oocytes were then washed in ND-96 (96 mM NaCl, 2 mM KCl, 1.8 mM CaCl2, 1 mM MgCl2, 5 mM HEPES, 50 ng/L gentamycin, 100 units/ml penicillin and 100 μg/ml streptomycin; pH 7.6) three times and this was followed by incubation in ND-96 at room temperature with mild agitation for 15 minutes; subsequently they were stored for at least 2 hours at 16° C. before sorting and selection for injection. Oocytes selected for injection were incubated overnight in ND-96 at 16° C.
The human GRIN1 (transcript variant NR1-3 (Origene, SKU #: SC115601, Rockville, Md.) and GRIN2D (NCBI locus NM_000836, sequence optimized and synthesized by GenScript) were linearized and transcribed using the mMessage mMachine kit (Life Technologies) and promoters SP6 (for GluN1) and T7 (for GluN2D). cRNAs were mixed together at a ratio of 1 GluN1:2 GluN2. Each oocyte was injected with 50 nL of cRNA and stored in ND96 (96 mM NaCl, 2 mM KCl, 1.8 mM CaCl2, 1 mM MgCl2, 5 mM HEPES, 50 ng/L gentamycin, 100 units/ml penicillin and 100 μg/ml streptomycin; pH 7.6) at 16° C. for 72 h prior to recording.
Currents were recorded using a two-electrode voltage-clamp amplifier (Oocyte Clamp OC-725C; Warner Instrument Corp, Hamden, Conn.), and digitized using Digidata 1550A and pClamp (v. 10) software (Molecular Devices, Sunnyvale, Calif.). Electrodes were filled with 3 M KCl and had resistances that ranged from 0.2-1 MO. All measurements were made at a holding potential of −40 mV. Cells were continuously perfused with oocyte recording solution containing 90 mM NaCl, 1 mM KCl, 0.5 mM BaCl2, and 10 mM HEPES (Ph 7.4). Glutamate and Glycine (co-agonists) were applied at respective concentrations of 10 μM each. Co-agonists were applied until a plateau was reached, and test compounds were then added in the continued presence of co-agonists until a new plateau was reached. After the addition of the last test compound concentration, the oocyte was washed with oocyte recording buffer. Fraction of current remaining was calculated as [(current in presence of test compound−background current)/(co-agonist current−background current)] and IC50 values were computed using Prism 6.0 (Graphpad).

T1 sequence (O15399 28-1336, other chains not shown): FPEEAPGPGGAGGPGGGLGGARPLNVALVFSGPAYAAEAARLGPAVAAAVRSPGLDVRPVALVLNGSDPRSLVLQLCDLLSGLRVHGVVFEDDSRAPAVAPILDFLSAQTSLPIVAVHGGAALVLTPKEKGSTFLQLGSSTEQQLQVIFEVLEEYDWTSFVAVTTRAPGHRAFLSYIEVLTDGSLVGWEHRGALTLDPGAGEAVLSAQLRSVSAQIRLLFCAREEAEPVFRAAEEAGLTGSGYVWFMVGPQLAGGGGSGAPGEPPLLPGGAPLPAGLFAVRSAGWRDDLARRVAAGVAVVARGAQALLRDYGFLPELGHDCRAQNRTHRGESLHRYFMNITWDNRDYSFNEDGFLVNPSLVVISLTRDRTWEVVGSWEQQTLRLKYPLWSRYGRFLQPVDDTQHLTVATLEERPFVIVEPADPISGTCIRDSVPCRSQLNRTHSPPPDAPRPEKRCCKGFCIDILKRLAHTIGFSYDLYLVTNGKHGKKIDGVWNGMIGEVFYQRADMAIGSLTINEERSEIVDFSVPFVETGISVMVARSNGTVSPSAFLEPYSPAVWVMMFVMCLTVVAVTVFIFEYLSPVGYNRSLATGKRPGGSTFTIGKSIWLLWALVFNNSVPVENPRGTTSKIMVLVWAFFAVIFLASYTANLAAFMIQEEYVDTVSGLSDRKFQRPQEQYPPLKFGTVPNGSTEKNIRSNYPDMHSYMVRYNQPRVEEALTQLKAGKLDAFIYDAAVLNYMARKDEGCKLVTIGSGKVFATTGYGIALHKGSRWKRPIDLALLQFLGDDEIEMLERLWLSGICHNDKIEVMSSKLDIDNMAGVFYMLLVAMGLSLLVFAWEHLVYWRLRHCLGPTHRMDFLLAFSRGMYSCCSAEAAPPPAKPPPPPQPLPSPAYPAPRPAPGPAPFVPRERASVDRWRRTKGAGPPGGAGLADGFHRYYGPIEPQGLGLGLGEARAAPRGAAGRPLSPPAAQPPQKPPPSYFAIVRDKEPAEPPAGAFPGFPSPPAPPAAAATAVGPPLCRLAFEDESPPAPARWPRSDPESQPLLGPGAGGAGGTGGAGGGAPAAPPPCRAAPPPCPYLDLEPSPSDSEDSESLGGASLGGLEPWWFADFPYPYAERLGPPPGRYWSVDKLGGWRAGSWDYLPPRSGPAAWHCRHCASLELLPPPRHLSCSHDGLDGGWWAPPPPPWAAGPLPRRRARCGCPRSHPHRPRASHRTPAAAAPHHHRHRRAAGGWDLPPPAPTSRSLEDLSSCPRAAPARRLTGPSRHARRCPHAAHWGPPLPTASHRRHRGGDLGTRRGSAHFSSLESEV

| SMILES | activation at 10 µM |
| --- | --- |
| CC(C)(C)c1ccc(-c2nc3n(c(=O)c2C#N)CCS3)cn1 [Example 1, 7-(6-(tert-butyl)pyridin-3-yl)-5-oxo-2,3-dihydro-5H-thiazolo[3,2-a]pyrimidine-6-carbonitrile] | 100 to 500% |
| CC(C)(C)c1ccc(-c2nc3n(c(=O)c2C#N)CC=CCS3)cn1 [Example 2, 2-(6-(tert-butyl)pyridin-3-yl)-4-oxo-6,9-dihydro-4H-pyrimido[2,1-b][1,3]thiazepine-3-carbonitrile] | 10 to 100% |
| CC(C)(C)c1ccc(-c2nc3sccn3c(=O)c2C#N)cn1 [Example 3, 7-(6-(tert-butyl)pyridin-3-yl)-5-oxo-5H-thiazolo[3,2-a]pyrimidine-6-carbonitrile] | 100 to 500% |
| CC(C)(C)c1ncc(-c2nc3n(c(=O)c2C#N)CCS3)cn1 [Example 4, 7-(2-(tert-butyl)pyrimidin-5-yl)-5-oxo-2,3-dihydro-5H-thiazolo[3,2-a]pyrimidine-6-carbonitrile] | 100 to 500% |
| CC(C)(C)c1ccc(-c2nc3n(c(=O)c2C#N)CN(c2ccccc2)CS3)cc1 [Example 5, 8-(4-(tert-butyl)phenyl)-6-oxo-3-phenyl-3,4-dihydro-2H,6H-pyrimido[2,1-b][1,3,5]thiadiazine-7-carbonitrile] | 10 to 100% |
| CN1CSc2nc(-c3ccc(C(C)(C)C)cc3)c(C#N)c(=O)n2C1 [Example 6, 8-(4-(tert-butyl)phenyl)-3-methyl-6-oxo-3,4-dihydro-2H,6H-pyrimido[2,1-b][1,3,5]thiadiazine-7-carbonitrile] | 10 to 100% |
| CCN1CSc2nc(-c3ccc(C(C)(C)C)cc3)c(C#N)c(=O)n2C1 [Example 7, 8-(4-(tert-butyl)phenyl)-3-ethyl-6-oxo-3,4-dihydro-2H,6H-pyrimido[2,1-b][1,3,5]thiadiazine-7-carbonitrile] | 10 to 100% |
| CN1CSc2nc(-c3ccc(C(C)(C)C)nc3)c(C#N)c(=O)n2C1 [Example 8, 8-(6-(tert-butyl)pyridin-3-yl)-3-methyl-6-oxo-3,4-dihydro-2H,6H-pyrimido[2,1-b][1,3,5]thiadiazine-7-carbonitrile] | 10 to 100% |
| CCN1CSc2nc(-c3ccc(C(C)(C)C)nc3)c(C#N)c(=O)n2C1 [Example 9, 8-(6-(tert-butyl)pyridin-3-yl)-3-ethyl-6-oxo-3,4-dihydro-2H,6H-pyrimido[2,1-b][1,3,5]thiadiazine-7-carbonitrile] | 10 to 100% |
| CN1CSc2nc(-c3cnc(C(C)(C)C)nc3)c(C#N)c(=O)n2C1 [Example 10, 8-(2-(tert-butyl)pyrimidin-5-yl)-3-methyl-6-oxo-3,4-dihydro-2H,6H-pyrimido[2,1-b][1,3,5]thiadiazine-7-carbonitrile] | 10 to 100% |
| CCN1CSc2nc(-c3cnc(C(C)(C)C)nc3)c(C#N)c(=O)n2C1 [Example 11, 8-(2-(tert-butyl)pyrimidin-5-yl)-3-ethyl-6-oxo-3,4-dihydro-2H,6H-pyrimido[2,1-b][1,3,5]thiadiazine-7-carbonitrile] | 10 to 100% |
| CC(C)(C)c1ccc(-c2cc(=O)n3ccccc3n2)cc1 [Example 12, 2-(4-(tert-butyl)phenyl)-4H-pyrido[1,2-a]pyrimidin-4-one] | 10 to 100% |
| CC(C)(C)c1ccc(-c2nc3n(c(=O)c2Br)CCCC3)cc1 [Example 13, 3-bromo-2-(4-(tert-butyl)phenyl)-6,7,8,9-tetrahydro-4H-pyrido[1,2-a]pyrimidin-4-one] | < 10% |
| C=Cc1c(-c2ccc(C(C)(C)C)cc2)nc2n(c1=O)CCCC2 [Example 14, 2-(4-(tert-butyl)phenyl)-3-vinyl-6,7,8,9-tetrahydro-4H-pyrido[1,2-a]pyrimidin-4-one] | < 10% |
| CC(C)(C)c1ccc(-c2nc3n(c(=O)c2Br)CCCC3)cn1 [Example 15, 3-bromo-2-(6-tert-butylpyridin-3-yl)-4H,6H, 7H,8H,9H-pyrido[1,2-a] pyrimidin-4-one] | 10 to 100% |
| CC(C)(C)c1ccc(-c2nc3n(c(=O)c2C#N)CC(F)CS3)cn1 (stereo not shown) [Example 16, 8-(6-(tert-butyl)pyridin-3-yl)-3-fluoro-6-oxo-3,4-dihydro-2H,6H-pyrimido[2,1-b][1,3]thiazine-7-carbonitrile] | 10 to 100% |

| SMILES | activation at 10 µM |
| --- | --- |
| CC(C)(C)c1ncc(-c2nc3n(c(=O)c2C#N)CC(F)CS3)cn1 (stereo not shown) [Example 17, 8-(2-tert-butylpyrimidin-5-yl)-3-fluoro-6-oxo-2H,3H, 4H,6H-pyrimido [2,1-b][1,3] thiazine-7-carbonitrile] | 100 to 500% |
| CC(C)(C)c1ccc(-c2nc3ccccn3c(=O)c2C#N)cc1 [Example 18, 2-(4-(tert-butyl)phenyl)-4-oxo-4H-pyrido[1,2-a]pyrimidine-3-carbonitrile] | 100 to 500% |
| CC(C)(C)c1ccc(-c2nc3ccccn3c(=O)c2C#N)cn1 [Example 19, 2-(6-(tert-butyl)pyridin-3-yl)-4-oxo-4H-pyrido[1,2-a]pyrimidine-3-carbonitrile] | 100 to 500% |
| Cc1ccc2nc(-c3ccc(C(C)(C)C)nc3)c(C#N)c(=O)n2c1 [Example 21, 2-(6-(tert-butyl)pyridin-3-yl)-7-methyl-4-oxo-4H-pyrido[1,2-a]pyrimidine-3-carbonitrile] | 100 to 500% |
| Cc1ccc2nc(-c3cnc(C(C)(C)C)nc3)c(C#N)c(=O)n2c1 [Example 22, 2-(2-(tert-butyl)pyrimidin-5-yl)-7-methyl-4-oxo-4H-pyrido[1,2-a]pyrimidine-3-carbonitrile] | 100 to 500% |
| CC(C)(C)c1ccc(-c2nc3n(c(=O)c2C#N)CCCC3)cc1 [Example 23, 2-(4-(tert-butyl)phenyl)-4-oxo-6,7,8,9-tetrahydro-4H-pyrido[1,2-a]pyrimidine-3-carbonitrile] | 10 to 100% |
| CC(C)(C)c1ccc(-c2nc3n(c(=O)c2C#N)CC(F)(F)CS3)cn1 [Example 24, 8-(6-(tert-butyl)pyridin-3-yl)-3,3-difluoro-6-oxo-3,4-dihydro-2H,6H-pyrimido[2,1-b][1,3]thiazine-7-carbonitrile] | 100 to 500% |
| CSc1c(-c2ccc(C(C)(C)C)cc2)nc2n(c1=O)CCCC2 [Example 25, 2-(4-(tert-butyl)phenyl)-3-(methylthio)-6,7,8,9-tetrahydro-4H-pyrido[1,2-a]pyrimidin-4-one] | < 10% |
| C[S+]([O-])c1c(-c2ccc(C(C)(C)C)cc2)nc2n(c1=O)CCCC2 (stereo not shown) [Example 26, 2-(4-(tert-butyl)phenyl)-3-(methylsulfinyl)-6,7,8,9-tetrahydro-4H-pyrido[1,2-a]pyrimidin-4-one] | < 10% |
| CSc1c(-c2ccc(C(C)(C)C)nc2)nc2n(c1=O)CCCC2 [Example 27, 2-(6-tert-butylpyridin-3-yl)-3-(methylsulfanyl)-4H,6H,7H, 8H,9H-pyrido[1,2-a] pyrimidin-4-one] | < 10% |
| CC(C)(C)c1ccc(-c2nc3n(c(=O)c2Br)CCCS3)cc1 [Example 28, 7-bromo-8-(4-(tert-butyl)phenyl)-3,4-dihydro-2H,6H-pyrimido[2,1-b][1,3]thiazin-6-one] | 100 to 500% |
| Cc1c(-c2ccc(C(C)(C)C)cc2)nc2n(c1=O)CCCS2 [Example 29, 8-(4-(tert-butyl)phenyl)-7-methyl-3,4-dihydro-2H,6H-pyrimido[2,1-b][1,3]thiazin-6-one] | 10 to 100% |
| CC(C)(C)c1ccc(-c2nc3n(c(=O)c2Br)CCCS3)cn1 [Example 30, 7-bromo-8-(6-(tert-butyl)pyridin-3-yl)-3,4-dihydro-2H,6H-pyrimido[2,1-b][1,3]thiazin-6-one] | 100 to 500% |
| Cc1c(-c2ccc(C(C)(C)C)nc2)nc2n(c1=O)CCCS2 [Example 31, 8-(6-(tert-butyl)pyridin-3-yl)-7-methyl-3,4-dihydro-2H,6H-pyrimido[2,1-b][1,3]thiazin-6-one] | 10 to 100% |
| C=Cc1c(-c2ccc(C(C)(C)C)cc2)nc2n(c1=O)CCCS2 [Example 32, 8-(4-(tert-butyl)phenyl)-7-vinyl-3,4-dihydro-2H,6H-pyrimido[2,1-b][1,3]thiazin-6-one] | 10 to 100% |
